From patent publication US11161854B2, “Indazolyl-spiro[2.2]pentane-carbonitrile derivatives as LRRK2 inhibitors, pharmaceutical compositions, and uses thereof” (Merck Sharp & Dohme Corp., priority 2017, dated 2021)

Target: GST-tagged truncated human mutant G2019S LRRK2 (Homo sapiens (Human), UniProt Q5S007, G2019S)
Assay: LRRK2 G2019S Km ATP LanthaScreen Assay
Type: biochemical
Details: 134 μM ATP (Km ATP); fluorescein-labeled LRRKtide substrate; mean IC50 values
Procedure: The IC50 values reported herein were measured as follows.
Biological Assay: LRRK2 Km ATP LanthaScreen™ Assay
The data presented for the Km ATP LanthaScreen™ Assay represents mean IC50 values based on several test results and may have reasonable deviations depending on the specific conditions and reagents used. Assays were performed in the presence of 134 μM ATP (Km ATP). Upon completion, the assay was stopped and phosphorylated substrate detected with a terbium (Tb)-labeled anti-pERM antibody (cat. no. PV4898). The compound dose response was prepared by diluting a 10 mM stock of compound to a maximum concentration of […] in 100% dimethylsulfoxide followed by custom fold serial dilution in dimethylsulfoxide nine times. Twenty nanoliters of each dilution was spotted via a Labcyte Echo onto a 384-well black-sided plate (Corning 3575) followed by 15 μl of a 1.25 nM enzyme solution in 1× assay buffer (50 mM Tris pH 8.5, 10 mM MgCl2, 0.01% Brij-35, 1 mM EGTA, 2 mM dithiothreitol, 0.05 mM sodium orthovanadate). Following a 15-minute incubation at room temperature, the kinase reaction was started with the addition of 5 μl of 400 nM fluorescein-labeled LRRKtide peptide substrate and 134 μM ATP solution in 1× assay buffer. The reaction was allowed to progress at ambient temperature for 90 minutes. The reaction was then stopped by the addition of 20 μl of TR-FRET Dilution Buffer (Life Technologies, Carlsbad, Calif.) containing 2 nM Tb-labeled anti-phospho LRRKtide antibody and 10 mM EDTA (Life Technologies, Carlsbad, Calif.). After an incubation of 1 hour at room temperature, the plate was read on an EnVision multimode plate reader (Perkin Elmer, Waltham, Mass.) with an excitation wavelength of 337 nm (Laser) and a reading emission at both 520 and 495 nm. […] Abase uses a 4 parameter (4P) logistic fit based on the Levenberg-Marquardt algorithm.

Sequence of GST-tagged truncated human mutant G2019S LRRK2 (Q5S007 970-2527 G2019S): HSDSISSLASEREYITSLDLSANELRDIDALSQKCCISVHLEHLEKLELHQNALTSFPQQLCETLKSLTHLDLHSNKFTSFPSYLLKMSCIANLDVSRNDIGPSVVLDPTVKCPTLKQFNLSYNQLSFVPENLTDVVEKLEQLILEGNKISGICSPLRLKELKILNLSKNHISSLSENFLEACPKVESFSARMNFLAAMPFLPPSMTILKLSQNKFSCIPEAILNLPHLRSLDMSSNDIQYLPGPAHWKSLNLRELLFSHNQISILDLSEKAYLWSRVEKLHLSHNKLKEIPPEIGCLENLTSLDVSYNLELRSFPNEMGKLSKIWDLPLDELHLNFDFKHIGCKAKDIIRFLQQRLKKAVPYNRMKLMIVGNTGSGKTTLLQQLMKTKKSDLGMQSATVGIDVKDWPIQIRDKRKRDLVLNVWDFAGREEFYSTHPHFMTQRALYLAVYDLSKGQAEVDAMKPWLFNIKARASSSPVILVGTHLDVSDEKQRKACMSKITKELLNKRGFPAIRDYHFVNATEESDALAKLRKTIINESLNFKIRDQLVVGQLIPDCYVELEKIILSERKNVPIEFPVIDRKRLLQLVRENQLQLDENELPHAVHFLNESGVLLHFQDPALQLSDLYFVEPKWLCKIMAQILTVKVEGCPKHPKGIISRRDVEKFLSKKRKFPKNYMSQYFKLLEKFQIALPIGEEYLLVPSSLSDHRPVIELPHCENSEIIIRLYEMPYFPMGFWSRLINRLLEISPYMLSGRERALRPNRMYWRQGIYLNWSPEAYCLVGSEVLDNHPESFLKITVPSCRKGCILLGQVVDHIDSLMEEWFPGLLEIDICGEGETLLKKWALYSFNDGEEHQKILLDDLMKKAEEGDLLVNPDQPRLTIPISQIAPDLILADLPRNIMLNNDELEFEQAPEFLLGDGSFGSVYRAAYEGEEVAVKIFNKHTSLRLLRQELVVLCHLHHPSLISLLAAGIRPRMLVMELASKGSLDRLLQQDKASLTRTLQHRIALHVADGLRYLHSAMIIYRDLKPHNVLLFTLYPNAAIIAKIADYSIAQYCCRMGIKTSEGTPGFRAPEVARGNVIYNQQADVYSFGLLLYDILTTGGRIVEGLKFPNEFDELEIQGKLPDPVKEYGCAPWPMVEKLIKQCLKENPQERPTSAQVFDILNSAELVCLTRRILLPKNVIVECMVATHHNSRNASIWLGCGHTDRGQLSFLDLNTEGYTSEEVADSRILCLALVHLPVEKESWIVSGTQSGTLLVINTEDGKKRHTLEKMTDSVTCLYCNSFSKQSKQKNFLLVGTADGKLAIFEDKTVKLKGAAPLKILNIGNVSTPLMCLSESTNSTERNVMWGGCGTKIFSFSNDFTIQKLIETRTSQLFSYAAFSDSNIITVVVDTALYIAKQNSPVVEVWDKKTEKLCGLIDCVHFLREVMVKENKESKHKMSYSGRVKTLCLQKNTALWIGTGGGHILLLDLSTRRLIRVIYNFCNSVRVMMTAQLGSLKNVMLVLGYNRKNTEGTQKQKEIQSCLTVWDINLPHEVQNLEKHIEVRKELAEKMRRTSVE

| Structure (SMILES) | IC50 [nM] |
| --- | --- |
| C[C@H]1CN(c2cc(-n3ncc4ccc([C@@]5(C#N)CC56CC6)cc43)ncn2)CCN1C1CCOC1 (single isomer, unassigned) [Example 3.8-1] | 1.6 |
| C[C@H]1CN(c2cc(-n3ncc4ccc([C@@]5(C#N)CC56CC6)cc43)ncn2)CCN1C1CCOC1 (single isomer, unassigned) [Example 3.8-2] | 0.8 |
| C[C@H]1CN(c2cc(-n3ncc4ccc([C@@]5(C#N)CC56CC6)cc43)ncn2)CCN1C1CCOC1 (single isomer, unassigned) [Example 3.8-3] | 1.3 |
| COC1(C(C)(C)O)CCN(c2cc(-n3ncc4ccc([C@@]5(C#N)CC56CC6)cc43)ncn2)C1 (single isomer, unassigned) [Example 3.10-1] | 15.1 |
| COC1(C(C)(C)O)CCN(c2cc(-n3ncc4ccc([C@]5(C#N)CC56CC6)cc43)ncn2)C1 (single isomer, unassigned) [Example 3.10-2] | 2.1 |
| COC1(C(C)(C)O)CCN(c2cc(-n3ncc4ccc([C@@]5(C#N)CC56CC6)cc43)ncn2)C1 (single isomer, unassigned) [Example 3.10-3] | 3.1 |
| COC1(C(C)(C)O)CCN(c2cc(-n3ncc4ccc([C@]5(C#N)CC56CC6)cc43)ncn2)C1 (single isomer, unassigned) [Example 3.10-4] | 0.9 |
| N#C[C@]1(c2ccc3cnn(-c4cc(N5CC(O)C6(CC6)C5)ncn4)c3c2)CC12CC2 (single isomer, unassigned) [Example 3.11-1] | 6.7 |
| N#C[C@@]1(c2ccc3cnn(-c4cc(N5CC(O)C6(CC6)C5)ncn4)c3c2)CC12CC2 (single isomer, unassigned) [Example 3.11-2] | 1.4 |
| N#C[C@]1(c2ccc3cnn(-c4cc(N5CC(O)C6(CC6)C5)ncn4)c3c2)CC12CC2 (single isomer, unassigned) [Example 3.11-3] | 6.3 |
| N#C[C@@]1(c2ccc3cnn(-c4cc(N5CC(O)C6(CC6)C5)ncn4)c3c2)CC12CC2 (single isomer, unassigned) [Example 3.11-4] | 0.6 |
| CC(C)(O)C1CN(c2cc(-n3ncc4ccc([C@]5(C#N)CC56CC6)cc43)ncn2)CCO1 (single isomer, unassigned) [Example 4.3-1, 1-(1-(6-(2-(2-hydroxypropan-2-yl)morpholino)pyrimidin-4-yl)-1H-indazol-6-yl)spiro[2.2]pentane-1-carbonitrile] | 1.8 |
| CC(C)(O)C1CN(c2cc(-n3ncc4ccc([C@]5(C#N)CC56CC6)cc43)ncn2)CCO1 (single isomer, unassigned) [Example 4.3-2, 1-(1-(6-(2-(2-hydroxypropan-2-yl)morpholino)pyrimidin-4-yl)-1H-indazol-6-yl)spiro[2.2]pentane-1-carbonitrile] | 0.6 |
| CC(C)(O)C12CC(C1)N(c1cc(-n3ncc4c(F)cc(C5(C#N)CC56CC6)cc43)ncn1)C2 (single isomer, unassigned) [Example 4.15-1] | 18.4 |
| CC(C)(O)C12CC(C1)N(c1cc(-n3ncc4c(F)cc(C5(C#N)CC56CC6)cc43)ncn1)C2 (single isomer, unassigned) [Example 4.15-2] | 2.3 |
| CC(C)(O)C12CC(C1)N(c1cc(-n3ncc4cnc(C5(C#N)CC56CC6)cc43)ncn1)C2 (single isomer, unassigned) [Example 5.2-1, 1-(1-(6-(4-(2-hydroxypropan-2-yl)-2-azabicyclo[2.1.1]hexan-2-yl)pyrimidin-4-yl)-1H-pyrazolo[4,3-c]pyridin-6-yl)spiro[2.2]pentane-1-carbonitrile] | 9.2 |
| CC(C)(O)C12CC(C1)N(c1cc(-n3ncc4cnc(C5(C#N)CC56CC6)cc43)ncn1)C2 (single isomer, unassigned) [Example 5.2-2, 1-(1-(6-(4-(2-hydroxypropan-2-yl)-2-azabicyclo[2.1.1]hexan-2-yl)pyrimidin-4-yl)-1H-pyrazolo[4,3-c]pyridin-6-yl)spiro[2.2]pentane-1-carbonitrile] | 1.7 |
| CC(C)(O)[C@@H]1CCN(c2cc(-n3ncc4cnc(C5(C#N)CC56CC6)cc43)ncn2)C1 (single isomer, unassigned) [Example 5.3-1] | 7.5 |
| CC(C)(O)[C@@H]1CCN(c2cc(-n3ncc4cnc(C5(C#N)CC56CC6)cc43)ncn2)C1 (single isomer, unassigned) [Example 5.3-2] | 0.7 |
| C[C@@H]1CN(c2cc(-n3ncc4cnc(C5(C#N)CC56CC6)cc43)ncn2)C[C@H](C)[C@]1(C)O (single isomer, unassigned) [Example 5.4-1] | 15 |
| C[C@@H]1CN(c2cc(-n3ncc4cnc(C5(C#N)CC56CC6)cc43)ncn2)C[C@H](C)[C@]1(C)O (single isomer, unassigned) [Example 5.4-2] | 2.6 |
| CC(C)(O)C12CC(C1)N(c1cc(-n3ncc4cc(F)c(C5(C#N)CC56CC6)cc43)ncn1)C2 (single isomer, unassigned) [Example 5.5-1, 1-(5-fluoro-1-(6-(4-(2-hydroxypropan-2-yl)-2-azabicyclo[2.1.1]hexan-2-yl)pyrimidin-4-yl)-1H-indazol-6-yl)spiro[2.2]pentane-1-carbonitrile] | 3.9 |
| CC(C)(O)C12CC(C1)N(c1cc(-n3ncc4cc(F)c(C5(C#N)CC56CC6)cc43)ncn1)C2 (single isomer, unassigned) [Example 5.5-2, 1-(5-fluoro-1-(6-(4-(2-hydroxypropan-2-yl)-2-azabicyclo[2.1.1]hexan-2-yl)pyrimidin-4-yl)-1H-indazol-6-yl)spiro[2.2]pentane-1-carbonitrile] | 31.6 |
| Cc1nc(N2CC3(C(C)(C)O)CC2C3)cc(-n2ncc3cc(F)c(C4(C#N)CC45CC5)cc32)n1 (single isomer, unassigned) [Example 5.6-1, 1-(5-fluoro-1-(6-(4-(2-hydroxypropan-2-yl)-2-azabicyclo[2.1.1]hexan-2-yl)-2-methylpyrimidin-4-yl)-1H-indazol-6-yl)spiro[2.2]pentane-1-carbonitrile] | 20.9 |
| Cc1nc(N2CC3(C(C)(C)O)CC2C3)cc(-n2ncc3cc(F)c(C4(C#N)CC45CC5)cc32)n1 (single isomer, unassigned) [Example 5.6-2, 1-(5-fluoro-1-(6-(4-(2-hydroxypropan-2-yl)-2-azabicyclo[2.1.1]hexan-2-yl)-2-methylpyrimidin-4-yl)-1H-indazol-6-yl)spiro[2.2]pentane-1-carbonitrile] | 1.3 |
| CC(C)(O)[C@@H]1CCN(c2cc(-n3ncc4cc(F)c(C5(C#N)CC56CC6)cc43)ncn2)C1 (single isomer, unassigned) [Example 5.7-1] | 21.7 |
| CC(C)(O)[C@@H]1CCN(c2cc(-n3ncc4cc(F)c(C5(C#N)CC56CC6)cc43)ncn2)C1 (single isomer, unassigned) [Example 5.7-2] | 2.6 |
| CC(C)(O)C12CC(C1)N(c1cc(-n3ncc4ccc(C5(C#N)CC56CC6)cc43)ccn1)C2 (single isomer, unassigned) [Example 6.1, (R or S)-1-(1-(2-(4-(2-hydroxypropan-2-yl)-2-azabicyclo[2.1.1]hexan-2-yl)pyridin-4-yl)-1H-indazol-6-yl)spiro[2.2]pentane-1-carbonitrile] | 1.2 |
| CC(C)(O)[C@@H]1CCN(c2cc(-n3ncc4cnc(C5(C#N)CC56CC6)cc43)ccn2)C1 (single isomer, unassigned) [Example 6.6-1] | 28.5 |
